Data published in PubChem BioAssay (NCI).
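Cells were grown in 96-well plates and exposed to each compound for 48 hours at five concentrations; endpoints were interpolated linearly between bracketing concentrations, or set to the highest concentration if not reached. GI50: concentration for 50% inhibition of growth. The concentration for full growth arrest is given as TGI.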

Legend:
Test in all cases: NCI tumour cell line growth inhibition, 48 h
A498 renal = tested on: A498 renal
CAKI-1 renal = tested on: CAKI-1 renal
COLO 205 colon = tested on: COLO 205 colon
LOX IMVI melanoma = tested on: LOX IMVI melanoma
NCI-H226 lung = tested on: NCI-H226 lung
OVCAR-3 ovarian = tested on: OVCAR-3 ovarian
SK-MEL-5 melanoma = tested on: SK-MEL-5 melanoma
SNB-19 CNS = tested on: SNB-19 CNS
U251 CNS = tested on: U251 CNS
PC-3 prostate = tested on: PC-3 prostate

Row | Structure (SMILES) | TGI (A498 renal) | TGI (CAKI-1 renal) | TGI (COLO 205 colon) | TGI (LOX IMVI melanoma) | TGI (NCI-H226 lung) | TGI (OVCAR-3 ovarian) | TGI (SK-MEL-5 melanoma) | TGI (SNB-19 CNS) | TGI (U251 CNS) | GI50 (CAKI-1 renal) | GI50 (COLO 205 colon) | GI50 (LOX IMVI melanoma) | GI50 (NCI-H226 lung) | GI50 (OVCAR-3 ovarian) | GI50 (PC-3 prostate) | TGI (PC-3 prostate) | GI50 (SK-MEL-5 melanoma) | GI50 (SNB-19 CNS) | GI50 (U251 CNS)
1 | C=C1CC2(CCS(=O)(=O)c3ccccc32)OC1=O (configuration not stated) | 31.5 µM | 3.3 µM | 9.33 µM | 33.3 µM | 28.9 µM | 21 µM | 27 µM | 22.8 µM | 26 µM | – | – | – | – | – | – | – | – | – | –
2 | O=C1c2cc(F)ccc2-c2c1c1ccc([N+](=O)[O-])cc1c(=O)n2CCCBr | – | > 100 µM | > 100 µM | 38.2 µM | > 100 µM | > 100 µM | 40.3 µM | > 100 µM | > 100 µM | 27.3 µM | 46.8 µM | 7.62 µM | 22.6 µM | 46.8 µM | 28.7 µM | > 100 µM | 11.7 µM | 8.13 µM | 9.87 µM
3 | Cc1ccc(Sc2ccccc2N)cc1 | > 100 µM | 67 µM | > 100 µM | > 100 µM | 66.4 µM | > 100 µM | 45.5 µM | > 100 µM | > 100 µM | – | – | – | – | – | – | – | – | – | –
4 | O=C(CSSCC(=O)Nc1ccc(Br)cc1)Nc1ccc(Br)cc1 | 34.1 µM | 50.3 µM | 74 µM | 26.3 µM | 31.7 µM | 32.1 µM | 45.8 µM | 29.4 µM | 27.6 µM | – | – | – | – | – | – | – | – | – | –
5 | CCOC(=O)CN(c1ccccc1)c1nc(=[N+](C)C)ss1 | > 100 µM | 87.8 µM | 15.4 µM | – | 75.4 µM | 2 µM | – | > 100 µM | 41.5 µM | – | – | – | – | – | – | – | – | – | –
